From a melting point compilation (Tetko et al.; mined from patent text by program, amines drawn as free bases though some values may be those of a salt)

Row | melting point [°C] | SMILES
1 | 164 | Cc1c(Sc2ccc(Cl)cc2)nn(-c2ccc(Oc3ccccc3)cc2)c(=O)c1C#N
2 | 314 to 316 | Cc1ccc(-n2c(-c3cc(C)ccc3C=Cc3ccccc3)ccc2-c2cc(C)ccc2C=Cc2ccccc2)cc1
3 | 241 to 242 | NS(=O)(=O)c1cc(C(=O)O)cc(SCc2ccccc2)c1Cl
4 | 175 to 185 | O=C1Nc2cccc(Cl)c2C12COc1cc3c(cc12)OCO3 (centres undefined)
5 | 175 to 183 | O=[N+]([O-])c1cccc(-c2cc3ncnc(Nc4ccc5[nH]ccc5c4)c3s2)c1
6 | > 250 | O=Cc1cccn1-c1ccc2ccc3[nH]c(=O)c(=O)[nH]c3c2c1
7 | 164 to 165 | COc1cc(COc2nn(Cc3ccccc3)cc2C(N)=O)ccc1OCc1nc(-c2ccccc2)oc1C
8 | > 268 | c1ccc(CN[C@H]2CCCN[C@H]2c2ccc(-c3ccccc3)cc2)cc1 (relative stereo)
9 | 48 | CCOC(=O)c1c(N)c(Cl)cn1C
10 | 189 | COc1cc(C(=O)c2nc(Br)c3ccccn23)ccc1[N+](=O)[O-]
11 | 75 | C=CCOc1ccc(Oc2ccc(C(=O)OC)cc2)cc1
12 | > 268 | Oc1ccc(-c2ncc3ncc(-c4ccncc4)cc3n2)cc1
13 | 259 to 260 | Cn1cc(C(=O)NC2CCCNC(=O)C2)nn1 (centres undefined)
14 | 212 to 213 | CCCCCCC(=O)Nc1c(Sc2cc(C)cc(C)c2)c(C)c[nH]c1=O
15 | 60 to 62 | CN(C)CCCC(O)c1ccc(F)cc1-c1ccccc1 (centres undefined)
16 | 181 to 182 | CC(=O)Nc1c(Cl)cc(C(C)=O)c2c1OCCO2
17 | 167 | O=Cc1cnc2c(OCc3ccccc3)cccn12
18 | 48 to 52 | O=C(Nc1nccs1)C(CC1CCCC1)c1ccc(-c2cccnc2)cc1 (centres undefined)
19 | 185 to 186 | Cc1cc(COc2ccc(F)c(C(N)=O)c2F)ccn1
20 | 64 to 65 | CCOC(=O)c1cnoc1-c1ccc(F)c(F)c1
21 | 217 to 218 | CN(C)c1ccc2nc3c4ccccc4c(=Nc4ccncc4)cc-3oc2c1
22 | 151 to 153 | CC1(C)CC1C(=O)NC(=CCCCCCBr)C(=O)O (centres undefined)
23 | 175 to 177 | COC(=O)C1CC=C(c2c(-c3ccccc3)[nH]c3ccccc23)CC1 (centres undefined)
24 | 98 to 99 | COC(=O)c1cc(C)c(C(=O)OC)c(OC)c1

Row | melting point [°C] | SMILES
25 | 50 to 52 | C=CCC(O)CCCCCCCCCOc1ccccc1 (centres undefined)
26 | 126 to 128 | c1cc(C2CC(c3ccncn3)CC(c3ccncn3)C2)ncn1 (centres undefined)
27 | 150 to 152 | Cc1ccc2c(C=O)c3ccccc3c(C=O)c2c1
28 | 140 to 142 | c1cnnc(N=C2SC[C@@H]3Cc4ccccc4CN23)c1
29 | 106 to 107 | Nc1ccc(NC(=O)CN2CCCCC2)cc1
30 | 184 to 187 | CSc1cc2c(cc1C(F)(F)F)N(C(=O)Nc1ccc(CO)cc1)CC2
31 | 193 | CCOC(=O)[C@@H]1CSC=CN1C(=O)[C@@H](Cc1ccccc1)N1C(=O)c2ccccc2C1=O (relative stereo)
32 | 124 | N#Cc1ccccc1NC(=O)c1snnc1C1CC1
33 | 132 to 134 | CC(C)(C)OC(=O)NNc1ccc([N+](=O)[O-])cn1
34 | 240 | O=P1(O)Oc2c(Cl)cc(Cc3ccccc3)cc2-c2ccccc21
35 | 215 to 216 | CC12CCC(=O)C=C1N(C(C)(C)C)CC1C2CCC2(CC(=O)O)C(C(=O)O)CCC12 (centres undefined)
36 | 143 to 145 | COc1ccnc(N2CCN(C(=O)c3cccs3)CC2)n1
37 | 187 | CC(C)(OC(=O)NC(Cc1c[nH]c2ccccc12)C(=O)NC(Cc1ccccc1)C(N)=O)C(Cl)(Cl)Cl (centres undefined)
38 | 83 to 85 | OCCN1CCC(OC(c2ccccc2)c2ccccc2)CC1
39 | 131 to 133 | COc1cc(Oc2cccc(C(F)(F)F)c2)nc(C(=O)Nc2ccccc2)c1
40 | 161 to 162 | Cc1nc(Br)c(S(C)(=O)=O)c(Br)n1
41 | 178 to 181 | O=C(O)c1ccccc1CF
42 | 144 to 145 | O=C(O)C(=O)c1ccc(OCCOc2ccc3ccccc3c2)cc1
43 | 177 to 179 | CC(C(=O)O)c1ccc2oc(-c3ccccc3)nc2c1 (centres undefined)
44 | 77 to 79 | C=CCOC(=O)c1ccc(N=C(NC)c2ccc(OC)c(C34CC5CC(CC(C5)C3)C4)c2)cc1
45 | 58 to 68 | CC(=O)NC1Cc2cc(CCN3CCN(c4nsc5ccccc45)CC3)ccc2C1(C)C (centres undefined)
46 | 164 to 165 | O=S(=O)(Nc1cccc2cc(-c3nccs3)[nH]c12)c1cccs1
47 | 238 to 240 | COc1cc(NC(=O)Nc2c(-c3ccccc3Cl)c3cc(C)ccc3oc2=O)cc(OC)c1OC(C)=O
48 | 187 to 189 | O=C(O)C1=Cc2cc([N+](=O)[O-])ccc2OC1C(F)(F)F (centres undefined)

Row | melting point [°C] | SMILES
49 | > 280 | Cc1cc2c(=O)c(C(=O)O)cn(-c3cc(N)c(F)cc3F)c2cc1F
50 | 75 to 77 | COc1ccc(C2=NN(C3CCCCCCC3)C(=O)[C@H]3CC=CC[C@@H]23)cc1OC (relative stereo)
51 | 160 to 162 | Cc1cccc(CCC(=O)Cn2ccnc2)c1
52 | 162 to 164 | CCCCN=C(CS(C)=O)c1cc2ccccc2cc1O (centres undefined)
53 | 95 to 97 | COC(=O)c1c(C)nc(C)c(C(=O)OCC2CCCO2)c1-c1cccc(O)c1 (centres undefined)
54 | 188 | COc1cc(-c2nnc3n2CCC[C@]3(Oc2cc(F)c(F)c(F)c2)C(C)(C)O)ccc1-c1cnc(C)o1
55 | 61 to 64 | O=C(Nc1nccs1)C(CC1CCCC1)c1cccc(S(=O)(=O)C(F)(F)F)c1 (centres undefined)
56 | 75 to 77 | CCOC(=O)c1c2ccc(Cl)cc2c(-c2ccccc2)n1CCN(CC)CC
57 | 34 | CCCCCCCCCCCCc1ccc(NC2CCCc3ccccc32)cc1 (centres undefined)
58 | 154 to 156 | O=[N+]([O-])c1ccc2c(c1)NCc1ccccc1O2
59 | 150 to 152 | CC(C)n1cnc2c(Nc3ccccn3)nc(F)nc21
60 | 210 to 214 | CS(=O)(=O)c1cc(C(=O)O)ccc1Oc1ccc(C(=S)Cc2ccc3ccccc3n2)cc1
61 | 191 to 193 | O=c1c2ccc(OCC3CO3)cc2oc2ccc3cccc(O)c3c12 (centres undefined)
62 | 174 | CCCNC(=O)COC1c2ccccc2C(=O)N1c1ccc2ccc(OC)nc2n1 (centres undefined)
63 | 156 to 158 | Cc1cccc2sc(-n3nc(CCC(=O)N(C)O)cc3-c3ccc(Cl)cc3)nc12
64 | 227 to 228 | Cc1nc(-c2ccc3c(=O)n(CC(C)C)c(CNC(=O)OC(C)(C)C)c(-c4ccccc4)c3c2)sc1C(N)=O
65 | 191 to 192 | CCCCc1nc2c(N)nc3ccccc3c2n1CCCNC(=O)Nc1ccccc1
66 | 193 to 194 | CN(C)c1ccc(-c2cc(F)c(F)cc2-c2ccc(S(N)(=O)=O)cc2)cc1Cl
67 | 163 to 166 | CCOCc1nc2c(N)nc(C)c(C)c2n1CCN
68 | 220 to 223 | COc1cccc(-c2c3c(cc4ccc(O)cc24)-c2ccc(O)cc2CO3)c1
69 | 214 to 215 | CC1(C)CC(NC(=O)Nc2ccccc2)c2cc(C#N)ccc2O1 (centres undefined)
70 | 228 | Cc1c(N2CCOCC2)c(F)cc2c(=O)c(C(=O)O)cn(C3CC3)c12
71 | 114 | O=[N+]([O-])c1cc(C(F)(F)F)ccc1NCCCN1CCN(C(c2ccccc2)c2ccccc2)CC1
72 | 157 to 160 | C=CCc1cc(C=C2SC(=S)NC2=O)cc(CC=C)c1O

Row | melting point [°C] | SMILES
73 | 137 to 140 | COc1ccc(F)cc1C(C)(C)CC(O)(Cn1ccc(=N)c2ccccc21)C(F)(F)F (centres undefined)
74 | 139 to 142 | CCOC(=O)CCCCC(=O)c1ccc2cc(O)ccc2c1
75 | 129 | CS(=O)(=O)c1ccc(OCc2ccccc2)c(C=O)c1
76 | 173 | Nc1c2c(nc3cccc(F)c13)C1CCC2C1 (centres undefined)
77 | 128 to 130 | O=C(Cc1ccccc1)NCc1cccc2c1C(=O)N(C1CCC(=O)NC1=O)C2=O (centres undefined)
78 | 275 to 277 | c1ccc2c(-c3nc(NC4CCCCC4)c4ccccc4n3)nccc2c1
79 | 175 to 178 | COc1ccc2c(c1)c(CC(=O)O)c(C)n2-c1nc(SC)nc2ccccc12
80 | 210 | N=C(N)NCCCc1cc[nH]n1
81 | 111 | CCc1cn2ccccc2c1S(=O)(=O)c1ccc(OCCCCBr)cc1
82 | 197 | CCOCCn1c(NC2CCN(C(=O)c3ccccc3N)C(Cc3ccccc3)C2)nc2ccccc21 (centres undefined)
83 | 66 to 68 | CCOC(=O)CC1CCc2cc3ccccc3n2C1 (centres undefined)
84 | 190 to 193 | CC(CNc1cc(Oc2ccc3c(C(=O)Nc4cc(C(C)(C)C)nn4-c4ccc(F)cc4)cccc3c2)ncn1)N(C)C (centres undefined)
85 | 216 to 218 | Cc1ccc(-c2nc3sc4ccccc4n3c2CC(=O)N(C)C)s1
86 | 104 | COc1cc(CO)ccc1NC(C)=O
87 | 169 to 171 | CCCc1nc(C(O)CCC)c(C)[nH]1 (centres undefined)
88 | 186 to 189 | CS(=O)(=O)c1ccc(-c2cnn(Cc3ccccc3)c(=O)c2Cc2ccc(F)cc2)cc1
89 | 59 to 60 | CC(C)c1sc(C#N)c2c1C(=O)CC(C)(C)C2
90 | 63 | CCCCN(CCCC)CCCOc1ccc(C(=O)c2c(C)oc3ccc([N+](=O)[O-])cc23)cc1
91 | 199 to 200 | CC(C)C(C)(C(N)=O)N1C(=O)c2ccc3ccsc3c2C1=O (centres undefined)
92 | 154 to 156 | COC(=O)c1ccc2oc(-c3cc(C)ccc3OC)cc(=O)c2c1
93 | 174 to 176 | CNC(=O)OCc1c(COC(=O)NC)c2n(c1C)Cc1ccccc1C2

Row | SMILES | melting point [°C]
94 | CC1(C)Oc2cc(CCc3ccccc3)cc(O)c2C2=CC(=O)CCC21 (centres undefined) | 233 to 235
95 | CC1Cc2cc3c(cc2C(c2ccc([N+](=O)[O-])cc2)=NN1C(=O)CBr)OCO3 (centres undefined) | 183 to 186
96 | CN1CCN(C(=O)OC2c3ccccc3C(=O)N2c2ccc3ccc(Br)nc3n2)CC1 (centres undefined) | 260
97 | Cc1nnc([C@H](Nc2ccc(C#N)c(Cl)c2C)[C@H](C)O)o1 | 181 to 183
98 | c1ccc(-c2ccc(C34CCCN(CC3)C4)nn2)cc1 (centres undefined) | 133 to 134
99 | COc1ccc(C=CC(=O)O)cc1-c1cc2c(cc1OCCCCCO)C(C)(C)CCC2(C)C | 115 to 117
